We go through one substance from patent US9422357.

The conditions of this series: disulfide bond; 38-membered ring.

Turning to S1C(disialo)•N19C(GlcNAc)-SRIF28, the ring closure, yield after HPLC amounted to 59%.
